Assays:
Format in all cases: in vivo
cynomolgus monkeys = assay: Intraocular pressure in cynomolgus monkeys; conditions: monkey, 0.03% topical, single dose, 2-24 h
Experimental: (§1) Intraocular pressure studies in dogs involved pneumatonometry performed in conscious, Beagle dogs of both sexes (10–15 kg). The animals remained conscious throughout the study and were gently restrained by hand. Drugs were administered topically to one eye as a 25 μL volume drop, the other eye received 25 μL vehicle (0.1% polysorbate 80:10 mM TRIS) as a control. Proparacaine (0.1%) was used for corneal anesthesia during tonometry.
An analogous procedure was carried out with cynomolgus monkeys with measurements at 2, 4, 6, and 24 hours after a single dose.

Beagle dogs [1] = assay: Ocular surface hyperemia in dogs; conditions: dog, 0.03% topical; score 0.5 trace, 1 mild, 2 moderate, 3 severe
Experimental: Ocular surface hyperemia was visually assessed and scored according to a system typically used clinically.
Ocular surface hyperemia was evaluated at the same time points as intraocular pressure measurement. It should be noted that untreated dog eyes frequently have a pink/red tone. Thus, values of trace or even mild are not necessarily out of the normal range.

Beagle dogs [2] = assay: Intraocular pressure in dogs (pneumatonometry); conditions: dog, 0.03% topical 25 μL drop to one eye, 5 day study
Experimental: as §1
Intraocular pressure was determined just before drug administration and at 2, 4 and 6 hr thereafter on each day of the 5 day study. Drug was administered immediately after the first IOP reading.

Row | SMILES | Max. ΔIOP (mm Hg) (cynomolgus monkeys) | Max hyperemia (Beagle dogs [1]) | Max. ΔIOP (mm Hg) (Beagle dogs [2])
1 | CC(C)OC(=O)CCC/C=C\C[C@H]1C(=O)CC[C@@H]1/C=C/C(O)CCc1sc2ccccc2c1Cl (single isomer, unassigned) [Compound 16b] | −3.4 | 0.9 | −5.7
2 | CC(C)OC(=O)CCC/C=C\C[C@H]1C(=O)CC[C@@H]1/C=C/C(O)CCc1sc2ccccc2c1Cl (single isomer, unassigned) [Compound 16c] | −7.8 | 1.0 | −4.8

Reference: patent US7101906B2, “2,3,4-substituted cyclopentanones as therapeutic agents” (Allergan, Inc., priority 2004, dated 2006)
